Key:
[1] = Pyrogenicity in the rabbit; assay type: in vivo, New Zealand white rabbits; settings: i.v., temperature increase
Protocol: 3 New Zealand white rabbits/group were injected i.v. with either OM-197-MP-AC or OM-294-DP at different doses (according to the European Pharmacopoeia 2001, Method 2.6.8).
Animals: Readout: temperature increase

[2] = test system: LACK-sensitized and challenged Balb/c ByJ mice; assay: LACK-induced allergic asthma model, prophylactic i.p. treatment; assay type: in vivo; settings: 1 mg/Kg i.p. prophylactic
Protocol: Females Balb/c ByJ mice of 6-week old were purchased from the Centre d'Elevage Janvier (CERJ, Le Genest-St-lsle, France). All the mice were sensitised by 2 i.p. injections of 10 μg LACK protein precipitated in 2 mg of Alum (PerBio Science France SAS, Brebières, France) at days 0 and 7.
Animals were divided in groups, as follow: • LACK-sensitized and saline-challenged mice (4 mice) • LACK-sensitized and challenged mice (8 mice) • OM-197-MP-AC-treated, LACK-sensitized and challenged mice (8 mice)
Mice of the third group were treated intraperitoneally with 1 mg/Kg (20 μg per mouse) of OM-197-MP-AC. Mice were treated on days: −1, 1, 2, 3, 6, 8, 9, 10 and 11. From day 16 to day 21, mice of groups B and C were exposed to a daily 20-min aerosol challenge of a LACK solution (0.15%) whereas mice of the saline group received a saline solution as control.
AHR was measured for all the mice one day after the last antigen challenge by whole-body plethysmography (Emka) in response to increasing concentrations (6-25 mg/ml) of inhaled methacholine (acetyl methyl choline, Sigma). AHR is expressed as enhanced pause (Penh, see FIG. 4), a dimensionless parameter perfectly correlated to airway compliance and resistance calculated value, which correlates with measurement of airway resistance, impedance, and intrapleural pressure.
All the mice were bled by heart puncture one day after the last aerosol. Total IgE were quantified by ELISA using rat EM-95 anti-IgE mAbs as coating antibody and rat anti-IgE mAbs coupled to biotin as second antibody as described (Julia et al., 2002).
Individual mice were bled and a canula was inserted into their trachea. Lungs were washed 3 times with 1 ml of warmed PBS. Cells were washed with PBS, resuspended in 300 μl, and counted using a Burker-Türk chamber. For differential BAL cell counts, cytospin preparations were made and stained with Wright/Giemsa coloration. The respective numbers of neutrophils, eosinophils, and other mononuclear cells were determined by microscopic examination. Only the percentage of eosinophils (FIG. 5) is reported here.
To investigate lung cytokine contents of treated and untreated animals, protein extracts were prepared from lungs of LACK-sensitized and PBS-challenged wt mice (group “Control”), LACK-sensitized and challenged wt mice (group Asthma”), OM-197-MP-AC-treated wt mice (group “OM-197”). IL-4, IL-5, IL-13 contents were analyzed by multiplex analysis using FACSArray.
Treated or untreated LACK-sensitized mice (see above) were next challenged with daily aerosol of LACK for five consecutive days. One day after the last aerosol, AHR was measured by whole-body plethysmography in response to increasing concentrations of aerosolized methacholine.
To further investigate the effects of prophylactic OM-197-MP-AC on allergic airway inflammation, proteins were extracted from lungs of both treated and untreated WT mice, and cytokines known to play a important role in asthma (IL-4, IL-5 and IL-13) were quantified by multiplex analysis using CBA array beads and FACSarray. Data were normalized to the total quantity of proteins and given as pg of cytokine per mg of lung proteins.

[3] = test system: Limulus Amoebocyte Lysate; assay: Limulus Amoebocyte Lysate chromogenic test (LAL endotoxicity); assay type: biochemical
Protocol: Endotoxicity was determined first for OM-197-MP-AC and for OM-294-DP by the Limulus Amoebocyte Lysate chromogenic test (Chromogenic-LAL of Bio-Whittaker, kit n° 50-65OU).
The enzymatic reaction is carried out at 37° C. and the formation of the chromogen over time is measured at 405 nm. The time necessary to reach 0.2 units of D.O. is recorded and the endotoxic activity calculated in relation to a LPS standard (standard curve). The results are expressed in EU (Endotoxin Unit) in relation to a standardized preparation of E. coli LPS (1 EU corresponds to 0.08 ng equivalent LPS).

NOD mice = assay: Occurrence of diabetes in Non Obese Diabetic (NOD) mice; assay type: in vivo; settings: for Occurrence of diabetes versus control (Kaplan-Meier, logrank): 10 weeks
Protocol: Group of 10 female 6-week old NOD mice were treated during 10 weeks with either 0.01, 0.1, and 1 mg/kg of OM-197-MP-AC. A group of 6 female MOD mice receiving 200 μl PBS i.p. 3 times a week was used as control.
In this series of experiments, the treatment was continued until the mice have reached 16 weeks of age. This is the point in time when control animals start developing overt diabetes.
Results in terms of diabetes incidence were compared to those obtained in control animals. Diabetes was checked once a week by glucosuria testing, using test strips (Glukotest®, Roche, France), twice a week when diabetes appeared. Diabetes was confirmed by evaluating glycemia (>3 mg/ml) with test strips (Glucotrend®).
The occurrence of diabetes in the different experimental groups is plotted (see FIG. 15) using the Kaplan-Meier method, i.e. non parametric cumulative survival plot. The statistical comparison between the curves is performed using the logrank (Mantel-Cox) test which provided the corresponding χ2 values.
FIG. 15: Occurrence of diabetes in NOD mice. Mice were treated i.p. with either PBS (6 animals), or the 3 indicated doses of OM-197-MP-AC (3 groups of 10 animals). Diabetes was checked once a week by glucosuria testing (Glukotest), and twice a week when diabetes appeared. Diabetes was confirmed by evaluating glycemia (>3 mg/ml) with test strips (Glucotrend®). The occurrence of diabetes in the different experimental groups is plotted (see FIG. 15) using the Kaplan-Meier method, i.e. non parametric cumulative survival plot. The statistical comparison between the curves is performed using the logrank (Mantel-Cox) test which provided the corresponding χ2 values: OM-197-MP-AC 1 mg/kg p=0.321; 0.1 mg/kg=0.0543

[4] = lung protein extracts, CBA/FACSArray

CCCCCCCCCCCC(=O)O[C@H](CCCCCCCCCCC)CC(=O)N[C@@H](CCOP(=O)(O)O)C(=O)NCCC[C@H](COC(=O)CCCCCN)NC(=O)C[C@H](O)CCCCCCCCCCC [OM-197-MP-AC, (3S, 9R)-3-[(R)-3-dodecanoyloxytetradecanoylamino]-4-oxo-5-aza-9-[(R)-3-hydroxytetradecanoylamino]-decan-1, 10-diol 1-dihydrogenophosphate 10-(6-aminohexanoate)]
Pyrogenic threshold [1]: > 0.9 mg/kg | Eosinophils in BAL, less than untreated control mice [2]: 3 times less | Total IgE in sera, less than untreated sensitized, challenged mice ([2]; ELISA): 2 fold less | Amount of KC produced in lungs ([2]; lung protein extracts): reduced by half | Lung IFN-γ, less than untreated mice ([2]; lung protein extracts): 2 times less | Lung IL-6, less than untreated mice ([2]; lung protein extracts): 1.5 times less | Lung MCP-1, less than untreated animals ([2]; lung protein extracts): 1.8 times less | Lung IL-4, less than untreated mice [2, 4]: 5 times less | Lung IL-5, less than untreated mice [2, 4]: 5 times less | Lung IL-13, less than untreated mice [2, 4]: 3.5 times less | Airway hyperresponsiveness (AHR, Penh) to methacholine ([2]; whole-body plethysmography one day after last challenge): did not exhibit AHR | Limulus activity in the chromogenic LAL assay [3]: very little or no Limulus activity | Occurrence of diabetes versus control (Kaplan-Meier, logrank) (NOD mice; 0.1 mg/kg i.p.): positive trend | Animals exhibiting diabetes (NOD mice; 0.3 mg/kg, week 27, another experiment): 27% | Occurrence of diabetes versus control (Kaplan-Meier, logrank) (NOD mice; 1 mg/kg i.p.): significantly active

Source: US8618080B2, “Immunomodulatory compounds and treatment of diseases related to an overproduction of inflammatory cytokines” (OM Pharma, priority 2006, dated 2013)
